In paper PMC11859423, “Fluorescent Probes to Image the KCa3.1 Channel in Tumor Cells” (Pharmaceutics, 2025):
Entries after “also recorded” stand apart in the source; their conditions may differ.

Tests used:
[1] = logD7.4 by micro shake flask method (n-octanol / MOPS buffer pH 7.4, LC-MS); assay type: physicochemical; conditions: read-out: logD7.4 ± SD (Micro Shake Flask)
Protocol: The logD7.4 values were recorded using the micro shake flask method. In this method, the test compound is distributed between n-octanol and MOPS buffer pH 7.4, and the amount of the compound in the buffer layer is determined by mass spectrometry.
The new fluorescent dyes were designed to increase the polarity and reduce the non-specific labeling of lipophilic membranes of cells. Moreover, a higher polarity should lead to increased water solubility and thus improved handling of the dyes. The logD7.4 value was recorded as a measure of the polarity/lipophilicity using our recently published micro-shake flask method. According to this method, the amount of compound in the aqueous 3-morpholinopropanesulfonic acid (MOPS) buffer pH 7.4 was determined by LC-MS [31, 32].

[2] = test system: HEK293 cells; assay: Negative control staining of HEK293 cells, which do not express KCa3.1 channels; assay type: cell-based; conditions: HEK293 cells do not express KCa3.1 channels
Protocol: After fixation of the cells (Section 2.10.2), 300 µL of the 10 µM staining solution was added to the glass bottom dish. The cells were incubated for 10 min at 4 °C in a dark chamber. After incubation, the cells were washed five times with 1 mL of PBS and used subsequently for fluorescence microscopy.
In a second control experiment, azide precursor 7b without the senicapoc warhead was incubated with fixed A549-3R tumor cells.

[3] = target: T1, KCa3.1 channel in A549-3R cells (Homo sapiens, UniProt O15554); assay: Blocking of staining by preincubation with senicapoc, fixed and living A549-3R cells (Protocols 3 and 4); assay type: cell-based; conditions: 30 µM senicapoc, 5 min, 4 °C
T1 construct: the non-small cell lung cancer cell line A549-3R with a high expression of the KCa3.1 channel was employed; endogenous in cells; host or cells: A549-3R cells
Protocol: After fixation of the cells (Section 2.10.2), 300 µL of a 30 µM solution of senicapoc blocking solution was added to the glass bottom dish. The glass bottom dish was incubated for 5 min at 4 °C. After incubation, the solution was removed and a mixture of 150 µL of 60 µM senicapoc solution and 150 µL of 20 µM staining solution were added to the glass bottom dish. The cells were incubated for 10 min at 4 °C in a dark chamber. Subsequently, the cells were washed five times with PBS and then used for fluorescence microscopy.
The cells were used without fixation. After incubating the cells for 24 h (Section 2.10.1), the medium was removed, and the cells were washed three times with 1 mL of PBS. Subsequently, the cells were stained as described in Protocol 3.
In order to show the specificity of labeling KCa3.1 channels by the fluorescent probe 10b, fixed and living cells were preincubated with 30 µM senicapoc (3) for 5 min at 4 °C. […] The complete blockade of the punctate staining pattern confirms that the KCa3.1 channel was labeled with probe 10b.

[4] = target: T1, KCa3.1 channel in A549-3R cells; assay: Staining of permeabilized A549-3R cells (Protocol 5); assay type: cell-based
Protocol: After fixation of the cells (Section 2.10.2), 1 mL of permeabilization solution was added to the glass bottom dish. The cells were incubated for 30 min at 4 °C and afterwards washed three times with PBS. Subsequently, Protocol 1 was performed.
The specificity of the bodipy-labeled senicapoc derivative 10b was further analyzed via conducting co-staining experiments with antibodies. For staining with antibodies, A549-3R cells had to be permeabilized with saponin, since the antibody binds at the intracellular part of the ion channel only after entering the cell. […] For antibody-based immunofluorescence staining of the KCa3.1 channels of permeabilized A549-3R cells, various concentrations of the primary and secondary antibody were tested. Optimal images were obtained with a dilution of 1:300 for the primary antibody and 1:500 for the secondary antibody (see Figure S13, Supplementary Materials). The images obtained by immunofluorescence staining were analyzed as described above for the images with fluorescent probe 10b. This analysis led to a FWHM of 4.80 ± 0.83 pixels and a density of 1.75 ± 0.19 KCa3.1 channels/µm^2. […]

[5] = target: T1, KCa3.1 channel in A549-3R cells; assay: Whole-cell patch clamp on A549-3R cells after channel opening with 1-EBIO; assay type: cell-based
Protocol: Bath solution: 140 mM NaCl, 5 mM KCl, 10 mM HEPES, 1 mM MgCl2 and 1 mM CaCl2 in an aqueous solution; pH = 7.4 with NaOH.
Pipette solution: 140 mM KCl, 10 mM HEPES, 1.3 mM EGTA, 1 mM MgCl2 and 1.217 mM CaCl2 in an aqueous solution; pH = 7.4 with NaOH; free Ca^2+ concentration of 1 µM.
1-EBIO solution: 100 mM stock solution of 1-ethylbenzimidazolone (1-EBIO) in DMSO was diluted with the bath solution to 50 µM.
Test solution: A 10 mM stock solution of imaging compound 10b in DMSO was diluted with the bath solution to 1 µM.
Senicapoc solution: 10 mM stock solution of senicapoc (3) in DMSO was diluted with bath solution to 1 µM.
Whole-cell patch clamp experiments were conducted at room temperature using borosilicate glass pipettes (GC150TF-10, Harvard Ltd., Boston, MA, USA) connected to an EPC-10 amplifier (HEKA Electronics, Lambrecht, Germany). […] Current density was calculated by dividing the current amplitude determined at the end of the depolarization voltage ramp to +60 mV by the membrane capacitance obtained from the slow capacitance compensation. The calculated free Ca^2+ concentration of the pipette solution was 1 µmol/L to obtain full activation of the KCa channels during the patch clamp experiments. […] A multi-barreled application pipette with a tip diameter of ~100 µm was used for test solution applications close to the recorded cell. […]

logD [1]: > 5 | density of labeled KCa3.1 channels ([4]; permeabilized A549-3R cells): 1.15 ion channels/µm^2 | staining pattern of permeabilized A549-3R cells ([4]; saponin permeabilization, Protocol 5): expected punctate staining pattern
Structure (SMILES): CCC1=C(C)C2=C(c3ccc(OCCOCCn4cc(COc5ccc(C(C(N)=O)(c6ccccc6)c6ccc(F)cc6)cc5)nn4)cc3)c3c(C)c(CC)c(C)n3[B-](F)(OC)[N+]2=C1C (stereo not shown) [10b, 2-{4-[(1-{2-[4-(2,6-Diethyl-4-fluoro-4-methoxy-1,3,5,7-tetramethyl-4-bora-3a,4a-diaza-s-indacen-8-yl)phenoxy]ethoxyethyl}-1,2,3-triazol-4-yl)methoxy]phenyl}-2-(4-flluorophenyl)-2-phenylacetamide]
staining pattern of HEK293 cells (negative control) [2]: a punctate staining pattern was not observed; also recorded: could not be observed | staining pattern after preincubation with senicapoc [3]: did not lead to a punctate staining pattern | inhibitory activity compared with senicapoc ([5]; 1 µM each, channel opened with 1-EBIO): only slightly lower than the inhibitory activity of senicapoc | inhibition of the KCa3.1 ion channel current ([5]; 1 µM, channel opened with 50 µM 1-EBIO, whole A549-3R cells): inhibited the ion channel considerably; also recorded: inhibited the ion current
